Data set [1] concerns tumour derived from mouse colon cancer cell line Colon26 [マウス結腸癌細胞株であるColon26細胞由来の腫瘍]. The data set can be described thus: Tumour growth suppression in mouse colon cancer model (Example 2). The format is in vivo. Conditions: sodium salt of Reference Example 72; BALB/c mice, male, Colon26 tumour s.c.; 20 mg/kg i.v. once daily day 0-3; n=7; day 3.
A short description of data set [2]: Body weight and side effects in mouse colon cancer model (Example 2). The format is in vivo. Conditions: sodium salt of Reference Example 72, 20 mg/kg i.v. once daily day 0-3.

Take `O=C(O)Cc1ccn(-c2cncc(-n3ncc4ccc(NC5CCCC5)cc43)n2)c1` [参考例72, 2-(1-(6-(6-(シクロペンチルアミノ)-1H-インダゾール-1-イル)ピラジン-2-イル)-1H-ピロール-3-イル)酢酸, ナトリウム塩]: the “suppression of estimated tumour volume compared with control group” value in data set [1] is 29%. For the same molecule, the “body weight difference between treated and control group” value in data set [2] (n=7, day 4, result in words) was “差は認められなかった”. The body weight in data set [2] (BALB/c mice with Colon26 tumour, n=7, weighed day 4, control group 22.9±0.5 g) turned out to be 22.7 ± 0.5 g. Moreover, in data set [2] (mouse, individual level, concluded from body weight, result in words), the side effects result is “副作用を示すことなく”.

(Values after patent publication JP2008208074A, “ピラジン誘導体を有効成分とする抗がん剤” (Toray Industries Inc, priority 2007, dated 2008).)
